Converted amounts (≈) assume the structure as drawn.
Compound | solubility (25 °C) [nM] | solubility (20 °C) [nM]
Clc1cc(Cl)c(-c2c(Cl)c(Cl)c(Cl)c(Cl)c2Cl)c(Cl)c1Cl | 0.0788 (≈ 0.0366 ng/mL) | 
Clc1ccc(-c2ccccc2Cl)c(Cl)c1 | 323 (≈ 83.3 ng/mL) | 
Clc1cc(Cl)c(-c2ccccc2Cl)c(Cl)c1 | 224 (≈ 65.4 ng/mL) | 
Clc1ccc(Cl)c(-c2c(Cl)c(Cl)c(Cl)c(Cl)c2Cl)c1Cl | 0.794 (≈ 0.341 ng/mL) | 
Clc1cc(Cl)c(-c2c(Cl)cc(Cl)c(Cl)c2Cl)c(Cl)c1Cl | 0.794 (≈ 0.341 ng/mL) | 
Clc1cc(Cl)c(-c2ccc(Cl)c(Cl)c2Cl)cc1Cl |  | 4.16 (≈ 1.5 ng/mL)
Clc1cc(Cl)c(-c2c(Cl)c(Cl)cc(Cl)c2Cl)c(Cl)c1Cl | 0.631 (≈ 0.271 ng/mL) | 
Clc1ccc(-c2cc(Cl)cc(Cl)c2Cl)cc1 | 170 (≈ 49.6 ng/mL) | 
Clc1cc(-c2cc(Cl)c(Cl)c(Cl)c2)cc(Cl)c1Cl | 1.41 (≈ 0.51 ng/mL) | 
Clc1cc(Cl)c(-c2c(Cl)c(Cl)c(Cl)c(Cl)c2Cl)c(Cl)c1 | 0.331 (≈ 0.142 ng/mL) | 
Clc1cc(Cl)c(-c2c(Cl)c(Cl)c(Cl)c(Cl)c2Cl)cc1Cl | 0.316 (≈ 0.136 ng/mL) | 
Clc1cccc(-c2c(Cl)cccc2Cl)c1Cl | 501 (≈ 146 ng/mL) | 
Clc1ccc(-c2c(Cl)cccc2Cl)c(Cl)c1Cl | 166 (≈ 54.2 ng/mL) | 
Clc1ccc(-c2c(Cl)ccc(Cl)c2Cl)c(Cl)c1 | 67.7 (≈ 22.1 ng/mL) | 
Clc1cc(Cl)c(-c2cc(Cl)c(Cl)c(Cl)c2)cc1Cl | 6.17 (≈ 2.23 ng/mL) | 
Clc1ccc(-c2ccccc2)c(Cl)c1Cl | 661 (≈ 170 ng/mL) | 
Clc1ccc(-c2c(Cl)cccc2Cl)cc1Cl | 95.5 (≈ 27.9 ng/mL) | 
Clc1ccc(-c2ccccc2)cc1Cl | 407 (≈ 90.9 ng/mL) | 
Clc1ccc(-c2cc(Cl)c(Cl)c(Cl)c2Cl)c(Cl)c1 |  | 3.02 (≈ 1.09 ng/mL)
Clc1cc(-c2cc(Cl)c(Cl)c(Cl)c2Cl)cc(Cl)c1Cl | 1.9 (≈ 0.753 ng/mL) | 
Clc1ccc(Cl)c(-c2c(Cl)ccc(Cl)c2Cl)c1 |  | 64.6 (≈ 21.1 ng/mL)
Clc1cc(Cl)c(-c2ccc(Cl)c(Cl)c2)c(Cl)c1 | 12.3 (≈ 4.02 ng/mL) | 
Clc1cccc(-c2ccc(Cl)c(Cl)c2Cl)c1 | 170 (≈ 49.6 ng/mL) | 
Clc1cc(Cl)cc(-c2c(Cl)c(Cl)c(Cl)c(Cl)c2Cl)c1 | 0.794 (≈ 0.314 ng/mL) | 
Clc1cc(Cl)c(Cl)c(-c2ccccc2)c1Cl | 56.2 (≈ 16.4 ng/mL) | 
Clc1ccc(-c2c(Cl)c(Cl)c(Cl)c(Cl)c2Cl)c(Cl)c1 | 1.07 (≈ 0.423 ng/mL) | 
Clc1ccc(-c2cc(Cl)c(Cl)cc2Cl)c(Cl)c1 | 11.2 (≈ 3.66 ng/mL) | 
Clc1cc(Cl)cc(-c2ccccc2Cl)c1 | 501 (≈ 129 ng/mL) | 

The next lines start with results.

solubility (25 °C) [nM] | Compound | solubility (20 °C) [nM]
2.09 (≈ 0.826 ng/mL) | Clc1cc(Cl)c(Cl)c(-c2c(Cl)cc(Cl)c(Cl)c2Cl)c1 | 
39.8 (≈ 13 ng/mL) | Clc1cc(Cl)c(-c2cccc(Cl)c2Cl)c(Cl)c1 | 
74.1 (≈ 21.7 ng/mL) | Clc1cccc(-c2cc(Cl)c(Cl)cc2Cl)c1 | 
17.4 (≈ 5.67 ng/mL) | Clc1cccc(-c2c(Cl)c(Cl)cc(Cl)c2Cl)c1 | 
9.77 (≈ 3.53 ng/mL) | Clc1ccc(Cl)c(-c2c(Cl)cc(Cl)c(Cl)c2Cl)c1 | 
0.513 (≈ 0.22 ng/mL) | Clc1cc(-c2c(Cl)c(Cl)cc(Cl)c2Cl)c(Cl)c(Cl)c1Cl | 
3.31 (≈ 1.19 ng/mL) | Clc1cccc(-c2c(Cl)cc(Cl)c(Cl)c2Cl)c1Cl | 
7.41 (≈ 2.68 ng/mL) | Clc1cc(-c2c(Cl)cccc2Cl)c(Cl)c(Cl)c1Cl | 
3.24 (≈ 1.28 ng/mL) | Clc1cc(Cl)c(-c2c(Cl)c(Cl)cc(Cl)c2Cl)c(Cl)c1 | 
33.9 (≈ 11.1 ng/mL) | Clc1cc(Cl)c(-c2cc(Cl)ccc2Cl)c(Cl)c1 | 
5.38 (≈ 1.94 ng/mL) | Clc1cc(Cl)cc(-c2c(Cl)c(Cl)cc(Cl)c2Cl)c1 | 
224 (≈ 65.4 ng/mL) | Clc1ccc(-c2c(Cl)cccc2Cl)c(Cl)c1 | 
7.59 (≈ 2.74 ng/mL) | Clc1cc(Cl)c(-c2cc(Cl)c(Cl)cc2Cl)c(Cl)c1 | 
11.2 (≈ 3.66 ng/mL) | Clc1ccc(-c2c(Cl)cc(Cl)c(Cl)c2Cl)cc1 | 
2.63 (≈ 0.949 ng/mL) | Clc1cc(Cl)c(Cl)c(-c2cc(Cl)c(Cl)cc2Cl)c1 | 
0.38 (≈ 0.163 ng/mL) | Clc1cc(-c2c(Cl)cc(Cl)c(Cl)c2Cl)c(Cl)c(Cl)c1Cl | 
2.57 (≈ 1.02 ng/mL) | Clc1cc(-c2c(Cl)ccc(Cl)c2Cl)c(Cl)c(Cl)c1Cl | 
2.09 (≈ 0.826 ng/mL) | Clc1cc(Cl)c(-c2cc(Cl)c(Cl)c(Cl)c2Cl)c(Cl)c1 | 
15.1 (≈ 4.94 ng/mL) | Clc1ccc(-c2cc(Cl)cc(Cl)c2Cl)c(Cl)c1 | 
5.37 (≈ 1.94 ng/mL) | Clc1cc(-c2c(Cl)ccc(Cl)c2Cl)cc(Cl)c1Cl | 
21.9 (≈ 7.14 ng/mL) | Clc1ccc(-c2c(Cl)cc(Cl)cc2Cl)c(Cl)c1 | 
11.5 (≈ 4.54 ng/mL) | Clc1ccc(Cl)c(-c2c(Cl)c(Cl)cc(Cl)c2Cl)c1Cl | 
11.2 (≈ 3.66 ng/mL) | Clc1cc(Cl)cc(-c2c(Cl)ccc(Cl)c2Cl)c1 | 
7.08 (≈ 2.8 ng/mL) | Clc1cc(Cl)c(-c2c(Cl)ccc(Cl)c2Cl)c(Cl)c1Cl | 
3.8 (≈ 1.5 ng/mL) | Clc1ccc(-c2c(Cl)c(Cl)cc(Cl)c2Cl)c(Cl)c1Cl | 
3.8 (≈ 1.37 ng/mL) | Clc1cccc(-c2cc(Cl)c(Cl)c(Cl)c2Cl)c1Cl | 
5.76 (≈ 2.08 ng/mL) | Clc1cc(Cl)c(-c2ccc(Cl)c(Cl)c2Cl)c(Cl)c1 | 
0.794 (≈ 0.314 ng/mL) | Clc1cc(-c2c(Cl)c(Cl)cc(Cl)c2Cl)cc(Cl)c1Cl | 
39.8 (≈ 13 ng/mL) | Clc1ccccc1-c1c(Cl)c(Cl)cc(Cl)c1Cl | 
0.794 (≈ 0.314 ng/mL) | Clc1cc(-c2c(Cl)cc(Cl)c(Cl)c2Cl)cc(Cl)c1Cl | 

From the OPERA property sets (Mansouri et al. 2018)
